In the oligonucleotide strings, read from the 5' end, every base follows the letter of its sugar. An asterisk marks phosphorothioate; unmarked linkages are phosphodiester. Other units and linkages are bracketed, terminal groups are in braces. A string of capitals states the bases alone. e = 2'-O-(2-methoxyethyl) (MOE); d = 2'-deoxy (DNA); m = 2'-O-methyl; r = 2'-OH (RNA); {P} = phosphate; f = 2'-fluoro
System: PCSK9 mRNA
Assay: In vitro screening of modified dsRNAs targeted to PCSK9 (Table 2b; cell type not given)
Assay type: cell-based
Conditions: 30 nM siRNA
Method in brief: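 siRNA at 30 nM (single-dose screen) was transfected with lipofectamine 2000 into cells seeded at 2.0×10^4/well. After 24 h, cells were lysed and PCSK9 mRNA measured by Quantigene, normalized to GAPDH (n=8). Values are % remaining PCSK9 mRNA relative to cells given an unrelated control siRNA.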

Substance	Remaining mRNA in % of controls at siRNA conc. of 30 nM
AD-12366: modified dsRNA, SEQ ID NO:1429/1430 (chain 1 GCCUGGAGUUUAUUCGGAATT; chain 2 rUrUrCrCrGrArArUrArArArCrUrCrCrArGrGrCdT*dT; chain 1: sugars from the 5' end rerererererererererdd, linkages o19 s1 (s phosphorothioate, o phosphodiester), methylation of C and T or U not given here)	23%
AD-12367: modified dsRNA, SEQ ID NO:1431/1432 (chain 1 GCCUGGAGUUUAUUCGGAATT; chain 2 rUrUrCrCrGmAmArUrAmAmArCrUrCrCrAmGmGmCdT*dT; chain 1: DNA at T, 2'-MOE at CU, RNA at AG, linkages o19 s1 (s phosphorothioate, o phosphodiester), methylation of C and T or U not given here)	42%
AD-12368: modified dsRNA, SEQ ID NO:1433/1434 (chain 1 GCCUGGAGUUUAUUCGGAATT; chain 2 rUrUrCrCrGrArAmUrArArArCrUrCmCrArGrGrCdT*dT; chain 1: DNA at T, 2'-MOE at CU, RNA at AG, linkages o19 s1 (s phosphorothioate, o phosphodiester), methylation of C and T or U not given here)	40%
AD-12369: modified dsRNA, SEQ ID NO:1435/1436 (chain 1 GCCUGGAGUUUAUUCGGAATT; chain 2 rUrUrCrCrGrArArUrArArArCrUrCrCrArGrGrCdT*dT; chain 1: DNA at T, 2'-MOE at CU, RNA at AG, linkages o19 s1 (s phosphorothioate, o phosphodiester), methylation of C and T or U not given here)	26%
AD-12370: modified dsRNA, SEQ ID NO:1437/1438 (chain 1 GCCUGGAGUUUAUUCGGAATT; chain 2 {P}-fUfUfCfCrGrArAfUrArArAfCfUfCfCrArGrGfCdT*dT; chain 1: DNA at T, 2'-MOE at CU, RNA at AG, linkages o19 s1 (s phosphorothioate, o phosphodiester), methylation of C not given here)	68%
AD-12371: modified dsRNA, SEQ ID NO:1439/1440 (chain 1 GCCUGGAGUUUAUUCGGAATT; chain 2 {P}-fUfUfCfCrGrArAfUrArArAfCfUfCfCrArGrGfC*fC*fU; chain 1: DNA at T, 2'-MOE at CU, RNA at AG, linkages o19 s1 (s phosphorothioate, o phosphodiester), methylation of C and T or U not given here)	60%
AD-12372: modified dsRNA, SEQ ID NO:1441/1442 (chain 1 GCCUGGAGUUUAUUCGGAATT; chain 2 {P}-mUfUmCfCmGfAmAfUmAfAmAfCmUfCmCfAmGfGmC*fC*mU; chain 1: DNA at T, 2'-MOE at CU, RNA at AG, linkages o19 s1 (s phosphorothioate, o phosphodiester), methylation of C and T or U not given here)	60%
AD-12373: modified dsRNA, SEQ ID NO:1443/1444 (chain 1 GCCUGGAGUUUAUUCGGAATT; chain 2 rUrUrCrCrGrArArUrArArArCrUrCrCrArGrGrCdT*dT; chain 1: DNA at T, 2'-MOE at CU, RNA at AG, linkages o19 s1 (s phosphorothioate, o phosphodiester), methylation of C and T or U not given here)	55%
AD-12374: modified dsRNA, SEQ ID NO:1445/1446 (chain 1 rGfCfCfUrGrGrArGfUfUfUrAfUfUfCrGrGrArAdT*dT; chain 2 fUfUfCfCrGrArAfUrArArAfCfUfCfCrArGrGfCdT*dT)	9%
AD-12375: modified dsRNA, SEQ ID NO:1447/1448 (chain 1 rGfCfCfUrGrGrArGfUfUfUrAfUfUfCrGrGrArAdT*dT; chain 2 rUrUrCrCrGrArArUrArArArCrUrCrCrArGrGrCdT*dT)	16%
AD-12377: modified dsRNA, SEQ ID NO:1449/1450 (chain 1 rGfCfCfUrGrGrArGfUfUfUrAfUfUfCrGrGrArAdT*dT; chain 2 mUrUmCrCrGrArAmUrArArArCrUmCmCrArGrGrCdT*dT)	88%
AD-12378: modified dsRNA, SEQ ID NO:1451/1452 (chain 1 rGfCfCfUrGrGrArGfUfUfUrAfUfUfCrGrGrArAdT*dT; chain 2 rUrUrCrCrGmAmArUrAmAmArCrUrCrCrAmGmGmC*mC*mU)	6%
AD-12379: modified dsRNA, SEQ ID NO:1453/1454 (chain 1 rGfCfCfUrGrGrArGfUfUfUrAfUfUfCrGrGrArAdT*dT; chain 2 rUrUrCrCrGrArArUrArArArCrUrCrCrArGrGrC*mC*mU)	6%
AD-12380: modified dsRNA, SEQ ID NO:1455/1456 (chain 1 rGfCfCfUrGrGrArGfUfUfUrAfUfUfCrGrGrArAdT*dT; chain 2 {P}-mUfUmCfCmGfAmAfUmAfAmAfCmUfCmCfAmGfGmC*fC*mU)	8%
AD-12381: modified dsRNA, SEQ ID NO:1457/1458 (chain 1 rGfCfCfUrGrGrArGfUfUfUrAfUfUfCrGrGrArAdT*dT; chain 2 {P}-mUfUmCfCmGfAmAfUmAfAmAfCmUfCmCfAmGfGmCdT*dT)	10%
AD-12382: modified dsRNA, SEQ ID NO:1459/1460 (chain 1 rGfCfCfUrGrGrArGfUfUfUrAfUfUfCrGrGrArAdT*dT; chain 2 {P}-fUfUfCfCrGrArAfUrArArAfCfUfCfCrArGrGfCdT*dT)	7%
AD-12383: modified dsRNA, SEQ ID NO:1461/1462 (chain 1 rGrCrCrUrGrGrArGrUrUrUrArUrUrCrGrGrArAdT*dT; chain 2 {P}-fUfUfCfCrGrArAfUrArArAfCfUfCfCrArGrGfCdT*dT)	7%
AD-12384: modified dsRNA, SEQ ID NO:1463/1464 (chain 1 rGmCmCmUrGrGrArGmUmUmUrAmUmUmCrGrGrArAdT*dT; chain 2 {P}-fUfUfCfCrGrArAfUrArArAfCfUfCfCrArGrGfCdT*dT)	8%
AD-12385: modified dsRNA, SEQ ID NO:1465/1466 (chain 1 GCCUGGNAGUUUAUUCGGAATT; chain 2 {P}-fUfUfCfCrGrArAfUrArArAfCfUfCfCrArGrGfCdT*dT; chain 1: chemistry not given here; further chemistry not fully specified)	8%
AD-12386: modified dsRNA, SEQ ID NO:1467/1468 (chain 1 fGmCfCmUfGmGfAmGfUmUfUmAfUmUfCmGfGmAfA; chain 2 {P}-fUfUfCfCrGrArAfUrArArAfCfUfCfCrArGrGfCdT*dT)	11%
AD-12387: modified dsRNA, SEQ ID NO:1469/1470 (chain 1 rGfCfCfUrGrGrArGrGfUfUfUrAfUfUfCrGrGrArA; chain 2 fUfUfCfCrGrArAfUrArArAfCfUfCfCrArGrGfC*fC*fU)	13%
AD-12388: modified dsRNA, SEQ ID NO:1471/1472 (chain 1 rGfCfCfUrGrGrArGrGfUfUfUrAfUfUfCrGrGrArA; chain 2 {P}-mUfUmCfCmGfAmAfUmAfAmAfCmUfCmCfAmGfGmC)	19%
AD-12389: modified dsRNA, SEQ ID NO:1473/1474 (chain 1 rGfCfCfUrGrGrArGrGfUfUfUrAfUfUfCrGrGrArA; chain 2 {P}-mUfUmCfCmGfAmAfUmAfAmAfCmUfCmCfAmGfGmC*fC*mU)	16%
AD-12390: modified dsRNA, SEQ ID NO:1475/1476 (chain 1 rGfCfCfUrGrGrArGrGfUfUfUrAfUfUfCrGrGrArA; chain 2 rUrUrCrCrGrArArUrArArArCrUrCrCrArGrGrC*mC*mU)	17%
AD-12391: modified dsRNA, SEQ ID NO:1477/1478 (chain 1 rGfCfCfUrGrGrArGrGfUfUfUrAfUfUfCrGrGrArA; chain 2 rUrUrCrCrGmAmArUrAmAmArCrUrCrCrAmGmGmC)	21%
AD-12392: modified dsRNA, SEQ ID NO:1479/1480 (chain 1 rGfCfCfUrGrGrArGrGfUfUfUrAfUfUfCrGrGrArA; chain 2 rUrUrCrCrGrArArUrArArArCrUrCrCrArGrGrCdT*dT)	28%
AD-12393: modified dsRNA, SEQ ID NO:1481/1482 (chain 1 rGfCfCfUrGrGrArGrGfUfUfUrAfUfUfCrGrGrArA; chain 2 rUrUrCrCrGrArAmUrArArArCrUrCmCrArGrGrCdT*dT)	17%
AD-12394: modified dsRNA, SEQ ID NO:1483/1484 (chain 1 rGfCfCfUrGrGrArGrGfUfUfUrAfUfUfCrGrGrArA; chain 2 mUrUmCrCrGrArAmUrArArArCrUmCmCrArGrGrCdT*dT)	75%
AD-12395: modified dsRNA, SEQ ID NO:1485/1486 (chain 1 GCCUGGAGUUUAUUCGGAATT; chain 2 {P}-fUfUfCfCrGrArAfUrArArAfCfUfCfCrArGrGfC*fC*fU; chain 1: sugars from the 5' end rerererererererererdd, linkages o19 s1 (s phosphorothioate, o phosphodiester), methylation of C not given here)	55%
AD-12396: modified dsRNA, SEQ ID NO:1487/1488 (chain 1 GCCUGGAGUUUAUUCGGAA; chain 2 UUCCGAAUAAACUCCAGGCCU; chemical modifications, chemistry not fully specified)	59%

— US20120016009A1, “Optimized Methods For Delivery Of DSRNA Targeting The PCSK9 Gene” (priority 2008, published 2012)
